Values quoted from earlier work as cited in patent US20080045551A1, “PHARMACEUTICAL COMBINATION COMPRISING AN ADENOSINE A1 ANTAGONIST AND A RADIOCONTRAST MEDIA” (priority 2006, published 2008).

Test system: radiocontrast media induced nephropathy
Details: intensive care patients; Greiner 2005

Cn1c(=O)c2[nH]cnc2n(C)c1=O [theophylline]
prophylaxis of radiocontrast media induced nephropathy (CIN): prophylactic properties
